Where two headings read alike, the source gives them in different places.

The values that follow come from patent US8440653B2, “3-substituted-1,4-diazepan-2-one melanocortin-5 receptor antagonists” (Mimetica Pty Ltd, priority 2008, dated 2013).

Assay [1] has as its target T1, human MC5R (hMC5R) (Homo sapiens, UniProt P33032).
T1 construct: purchased Perkin Elmer RBXMC5M400UA
The assay is described as follows: Human MC5R radioligand binding assay ([125I] NDP-MSH displacement). The method, then: Assessments of compound binding to human MC5R (hMC5R) by displacement of an ^125I-labeled NDP-MSH receptor ligand peptide were performed essentially as described in the data sheets produced by Perkin Elmer to accompany their frozen hMC5R membranes (Perkin Elmer catalog number RBXMC5M400UA).
Na^125I (0.5 mCi, 17.4 Ci/mg) was added to 50 μL sodium phosphate (50 mM, pH 7.4) in an eppendorf tube precoated with IODOGEN. After incubation for 10 mins the phosphate buffer containing the iodine was added to NDP-MSH (10 ul at 1 mg/mL) in a separate eppendorf tube. This was incubated for a further 10 mins. The iodinated NDP-MSH was purified by HPLC on a Zorbax SB 300 column using solvent A: 0.05% TFA and solvent B: 90% acetonitrile 0.045% TFA with a linear gradient, 0-67% B over 60 mins. The ^125I NDP-MSH eluted at 52 min after the unlabeled starting material (48 min) and was counted and stored in the freezer.
Incubation buffer: 25 mM HEPES-KOH (pH 7.0), 1.5 mM CaCl2, 1 mM MgSO4, 0.1 M NaCl, 1 mM 1,10-phenanthroline, and 1 Complete™ protease inhibitor tablet/100 mL (Roche, catalog number 1873580)
Perkin Elmer frozen hMC5 membranes: catalog number RBXMC5M400UA, 0.4 mL/vial; 400 microassays/vial. 0.78 mg/mL protein concentration
Vials of frozen membranes were thawed rapidly immediately before use, diluted with binding buffer and vortexed. Resuspended membranes were kept on ice until they were added to the wells of the plate.
(§1) Assays were performed in 96 well polypropylene plates. […] This was incubated for 1 hr at 37° C. […] Non-specific binding just under 5%.
Representative compounds of the present invention were tested for binding in the hMC5R assay as in Example 46, as listed in Table 3. The compounds were tested as their trifluoroacetate or hydrochloride salts, or as their free bases.

In assay [2] the target is T2, human MC1R (Homo sapiens, UniProt Q01726).
T2 construct: expressed in transfected cells; host or cells: transfected mammalian cells, if the membranes were in-house
Kind of assay: Human MC1R radioligand binding assay. The following applies: [125I] NDP-MSH. Here is the method:
as §1
(§2) Radioligand binding assays were carried out using commercial or in-house prepared hMC1R, hMC3R and hMC4R membranes and [^125I] NDP-MSH, as per hMC5R procedure in Example 46.
(§3) The homogenisation and ice incubation was repeated three times. The mixture was then centrifuged at 1260×g for 5 mins. […] This was centrifuged at 30,000×g for 90 mins at 4° C.

In assay [3] the target is T3, human MC5R (Homo sapiens, UniProt P33032).
T3 construct: host or cells: HEK 293, transient transfection
Kind of assay: cAMP assay (antagonism of alpha-MSH) in HEK 293 cells expressing human MC5R. It is filed as cell-based. The following applies: HEK 293 cells transiently expressing MC5R; 10^−6 M alpha-MSH. The method, then: (§4) HEK 293 cells transiently expressing the melanocortin MC5 receptor were suspended in stimulation buffer (Hanks buffered saline solution (HBSS), 0.1% bovine serum albumin, protease inhibitors and 0.5 mM 3-Isobutyl-1-methylxanthine) at 4×10^6 cells/mL. 5 μl of cells, plus the compounds/peptides as described below, were added to wells of a 384-well plate as soon as possible after resuspension.
To detect antagonist activity, test compounds at varying concentrations were diluted in stimulation buffer at four times concentrate and 2.5 μl was added to wells containing cells. 2.5 μl of a four times required concentration of NDP-MSH or alpha-MSH was added to all wells containing compounds. […]
(§5) Basal level (of cAMP) control wells contained stimulation buffer only (no agonist or compounds). […] After incubation, 10 μl of lysis buffer (10% Tween 20, 1 M HEPES, 0.1% BSA, protease inhibitors, ddH2O) was added to all wells to be measured. […] 5 μl of diluted acceptor beads were added to each well to be measured, then the plate was incubated for 30 mins at room temperature, in the dark, with gentle shaking. […] Plates were read on an Envision plate reader (Perkin Elmer) after 1 hr and ˜16 hrs incubation. cAMP concentration in the cells was determined by the use of a ‘standard curve’ generated from the output of known cAMP concentrations as described below. […]

Assay [4] has as its target T3, human MC5R. The assay is described as follows: cAMP stimulation assay (agonism) in HEK 293 cells expressing human MC5R. In kind it is cell-based. The following applies: HEK 293 cells transiently expressing MC5R. The method, then: as §4
To detect agonist activity, test compounds at varying concentrations were diluted in stimulation buffer at two times concentrate and 5 μl was added to wells containing cells. Positive control wells contained NDP-MSH or alpha-MSH alone (no compound) at two times concentrate
as §5

Assay [5] deals with T4, human MC4R (Homo sapiens, UniProt P32245).
T4 construct: expressed in transfected cells; host or cells: transfected mammalian cells, if the membranes were in-house
The assay is described as follows: Human MC4R radioligand binding assay. The following applies: [125I] NDP-MSH. Here is the method: as §1, §2, §3

Assay [6] deals with T5, human MC3R (Homo sapiens, UniProt P41968).
T5 construct: expressed in transfected cells; host or cells: transfected mammalian cells, if the membranes were in-house
The assay is described as follows: Human MC3R radioligand binding assay. The following applies: [125I] NDP-MSH. Here is the method: as §1, §2, §3

The subject of assay [7] is sebum excretion. The following applies: oral isotretinoin, after 8-12 weeks of therapy; cited from earlier work.
Assay [8] concerns the target T6, rhesus monkey MC5R (Macaca mulatta, UniProt A0A5F8AEA9).
T6 construct: expressed in transfected cells
The assay is described as follows: MC5R radioligand binding assay, other species: rhesus monkey MC5R membranes. The following applies: membranes of cells expressing cloned receptor. Here is the method:
as §1
(§6) Representative compounds of the present invention were tested for binding to MC5R from other species, as in described in Example 48, the results are listed in Table 4.

In assay [9] the target is T7, mouse MC5R (Mus musculus, UniProt P41149).
T7 construct: purchased Euroscreen
Kind of assay: MC5R radioligand binding assay, other species: mouse MC5R membranes. The following applies: membranes from Euroscreen; read-out: mouse MC5R (membrane) IC50. The method, then:
as §1, §6

The mark [10] stands for this setting: Table 5, hMCR binding selectivity, read-out: human MC5R IC50.
The mark [11] stands for this setting: hMC5R membranes, [125I] NDP-MSH, tested as trifluoroacetate or hydrochloride salts or free bases, read-out: MC5R radioligand IC50.

T3 sequence (P33032 whole entry): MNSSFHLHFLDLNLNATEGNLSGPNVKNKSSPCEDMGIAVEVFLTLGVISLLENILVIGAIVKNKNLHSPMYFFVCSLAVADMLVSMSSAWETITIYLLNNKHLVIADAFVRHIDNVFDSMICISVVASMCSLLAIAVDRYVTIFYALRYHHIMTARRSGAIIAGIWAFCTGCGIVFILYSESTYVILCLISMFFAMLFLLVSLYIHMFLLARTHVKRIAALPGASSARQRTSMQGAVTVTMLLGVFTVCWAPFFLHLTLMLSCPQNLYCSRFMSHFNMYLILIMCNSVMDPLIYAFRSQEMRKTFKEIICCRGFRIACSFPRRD
T1 sequence (P33032 whole entry): as above
T2 sequence (Q01726 whole entry): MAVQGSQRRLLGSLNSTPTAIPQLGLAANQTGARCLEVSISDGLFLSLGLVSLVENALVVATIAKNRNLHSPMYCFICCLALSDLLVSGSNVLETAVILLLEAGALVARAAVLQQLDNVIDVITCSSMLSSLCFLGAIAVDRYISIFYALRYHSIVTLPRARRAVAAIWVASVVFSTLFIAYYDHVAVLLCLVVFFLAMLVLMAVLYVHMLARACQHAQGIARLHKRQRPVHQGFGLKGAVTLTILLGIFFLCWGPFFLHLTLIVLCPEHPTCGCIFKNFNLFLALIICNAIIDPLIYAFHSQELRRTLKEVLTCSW
T4 sequence (P32245 whole entry): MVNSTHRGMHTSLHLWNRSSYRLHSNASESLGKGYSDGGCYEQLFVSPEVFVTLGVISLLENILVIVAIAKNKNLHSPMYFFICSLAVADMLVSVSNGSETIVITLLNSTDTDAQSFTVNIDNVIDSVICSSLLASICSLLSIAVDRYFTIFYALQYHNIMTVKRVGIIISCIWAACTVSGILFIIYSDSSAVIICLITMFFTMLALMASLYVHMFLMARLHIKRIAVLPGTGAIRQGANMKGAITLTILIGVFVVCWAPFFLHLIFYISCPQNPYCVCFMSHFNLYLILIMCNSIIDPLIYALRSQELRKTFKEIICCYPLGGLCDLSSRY
T5 sequence (P41968 whole entry): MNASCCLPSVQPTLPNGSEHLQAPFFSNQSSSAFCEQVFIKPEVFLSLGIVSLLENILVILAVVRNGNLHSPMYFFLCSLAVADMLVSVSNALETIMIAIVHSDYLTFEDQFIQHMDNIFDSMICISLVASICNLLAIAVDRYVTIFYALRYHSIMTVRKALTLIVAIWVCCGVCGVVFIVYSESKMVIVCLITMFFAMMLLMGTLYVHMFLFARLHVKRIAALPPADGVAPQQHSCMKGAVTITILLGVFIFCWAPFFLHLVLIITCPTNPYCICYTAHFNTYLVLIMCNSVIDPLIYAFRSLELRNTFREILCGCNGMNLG
T6 sequence (A0A5F8AEA9 1-325): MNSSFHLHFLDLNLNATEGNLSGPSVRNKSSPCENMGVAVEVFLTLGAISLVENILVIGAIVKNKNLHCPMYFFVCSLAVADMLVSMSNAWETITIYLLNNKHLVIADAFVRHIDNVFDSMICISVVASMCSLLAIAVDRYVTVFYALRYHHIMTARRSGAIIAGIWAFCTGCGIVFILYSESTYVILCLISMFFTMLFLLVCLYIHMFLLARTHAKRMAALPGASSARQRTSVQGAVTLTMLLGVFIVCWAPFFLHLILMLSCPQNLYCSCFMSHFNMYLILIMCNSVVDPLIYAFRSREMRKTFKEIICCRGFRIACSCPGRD
T7 sequence (P41149 whole entry): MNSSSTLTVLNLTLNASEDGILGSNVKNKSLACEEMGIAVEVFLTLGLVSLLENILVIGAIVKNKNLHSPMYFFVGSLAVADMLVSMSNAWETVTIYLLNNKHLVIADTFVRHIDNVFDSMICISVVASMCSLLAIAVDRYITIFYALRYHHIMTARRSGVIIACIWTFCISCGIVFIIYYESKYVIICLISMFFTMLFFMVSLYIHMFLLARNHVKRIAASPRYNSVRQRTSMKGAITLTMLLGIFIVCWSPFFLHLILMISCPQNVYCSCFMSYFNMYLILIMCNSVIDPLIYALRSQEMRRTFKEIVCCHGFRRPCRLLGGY

In the case of `CC[C@H](CN1CC[C@@H](CNC(=O)c2ccc3cc(Cl)ccc3c2)N[C@@H](CCC(=O)N2CCCCC2)C1=O)c1ccccc1` [Compound 66, 6-chloro-N-(((3S,5S)-2-oxo-3-(3-oxo-3-(piperidin-1-yl)propyl)-1-((S)-2-phenylbutyl)-1,4-diazepan-5-yl)methyl)-2-naphthamide], the IC50 is 0.05 µM in [1] (setting [10]); < 0.1 µM in [1] (setting [11]); > 10 µM in [2]; 0.6 µM in assay [3]; > 10 µM in assay [5]; 4.96 µM in assay [6]. For the same compound, the half-maximal effective concentration (EC50) in assay [4] is > 10 µM.

On to `CC1=C(/C=C/C(C)=C/C=C/C(C)=C\C(=O)O)C(C)(C)CCC1` [isotretinoin, 13-cis-retinoic acid], for which, in assay [7], the “reduction of sebum excretion” value is listed as “up to 90%”.

Take `O=C(NC[C@@H]1CCN(CC(c2ccccc2)c2ccccc2)C(=O)[C@H](Cc2ccncc2)N1)c1ccc2ccccc2c1` [Compound 48, N-(((3S,5S)-1-(2,2-diphenylethyl)-2-oxo-3-(pyridin-4-ylmethyl)-1,4-diazepan-5-yl)methyl)-2-naphthamide]: the concentration for half-maximal inhibition (IC50) in [1] (setting [11]) is < 10 µM.

`CC[C@H](CN1CC[C@@H](CNC(=O)c2ccc3cc(Cl)ccc3c2)N[C@@H](CCC(C)C)C1=O)c1ccccc1` [Compound 17, 6-chloro-N-(((3S,5S)-3-isopentyl-2-oxo-1-((S)-2-phenylbutyl)-1,4-diazepan-5-yl)methyl)-2-naphthamide]: the IC50 in assay [8] is 3.76 µM; in [1] (Table 4, membranes, read-out: human MC5R (membrane) IC50) it was 0.03 µM; in assay [1] (setting [10]), 0.03 µM; in assay [1] (setting [11]), < 0.1 µM; in assay [2], > 10 µM; in assay [9] it was 2.3 µM. Further, the IC50 is 6 µM in assay [3], > 10 µM in [5] and 3.05 µM in assay [6]. Moreover, the EC50 in [4] is > 10 µM.

Take `NC(=O)CC[C@@H]1N[C@H](CNC(=O)c2ccc3ccccc3c2)CCN(CC(c2ccccc2)c2ccccc2)C1=O` [Compound 52, N-(((3S,5S)-3-(3-amino-3-oxopropyl)-1-(2,2-diphenylethyl)-2-oxo-1,4-diazepan-5-yl)methyl)-2-naphthamide]: in assay [1] (setting [11]), the IC50 is < 1 µM.

Broadly, the IC50 is the concentration at which inhibition is half-maximal. As a reminder, the EC50 is the concentration at which the effect is half-maximal.
